Source: US12343397B2, “Drug-resistant immune cells and methods of use thereof” (Regents of the University of Minnesota, priority 2018, dated 2025)

Tests used:
exon 2 of NR3C1 = experiment: Surveyor nuclease assay of NR3C1 gRNA candidates in human primary T-cells; format: cell-based; settings: Cas9 with gRNA
Method: FIGS. 3A-3D depicts the process of gene editing of NR3C1 glucocorticoid receptor by CRISPR guide RNA and Cas9. FIG. 3A depicts a schematic illustrating the process of gene transfer. T cells or Tregs were harvested and activated with CD3/CD28 beads for 48 h (fresh) or 72 h (frozen). The Neon electroporation device was used to deliver Cas9 mRNA or protein with a gene specific guide RNA. FIG. 3B depicts a schematic illustrating NR3C1 gene targeting. Four sites in exon 2 were identified and tested. Four candidates were identified. The candidates were tested using the Surveyor method. FIG. 3C depicts a schematic illustrating the Surveyor assay. Gene modified (“mutant amplicon”) and unmodified (“wild type amplicon”) are hybridized resulting in homo- or heteroduplexes. Heteroduplexes caused by pairing of gene edited and wild type sequences are cleaved by the Surveyor enzyme resulting in predictable DNA fragments.
Using these parameters the use of CRISPR/Cas9 engineering of T-cells was pursued using the experimental schema as shown in FIG. 3A. Human primary T-cells were grown in the presence of IL-2 and activated with CD3/CD28 beads for 48-72 hours. The CRISPR/Cas9 reagents used a guide RNA transcript (Synthego) and recombinant Cas9 peptide (Aldevron) that were delivered using the Neon electroporation device (ThermoFisher). […]

NR3C1 = experiment: Base editing of NR3C1 in Tregs (Sanger sequencing, EditR); format: cell-based, human; settings: Tregs electroporated with base editor mRNA and guide RNA
Source text: Treg cells were base edited by electroporation of the base editor as protein or mRNA encoding said base editor, along with a guide RNA to target bases for editing with said base editor. The genomic DNA of the edited cells was then isolated and the target locus was PCR amplified. The PCR amplified locus was then sequenced by Sanger sequencing. Base conversion was observed by identifying multiple peaks at the target site. The PCR amplicon sequence data then underwent decomposition using the EDITR method to quantify base editing frequency (see, Kluesner et al. “EditR: A novel base editing quantification software using Sanger sequencing”.DOI: 10.1101/213496.2017). For FIGS. 19-22, and 24-27, the base edited sequences are marked by red open boxes.
FIG. 16 depicts a schematic showing base editing wherein the CRISPR deactivated or nicking DNA binding domain is a dCas9, and the base-editing domain is a cytidine deaminase. Base editors can be delivered as RNP complexes whereby the guide RNA may or may not be modified with phosphorothioate bonds to prevent intracellular degradation by endogenous RNAses. […] Further, the sequences at exon:intron boundaries defined as splice donors and acceptors that are required for intron excision and proper open reading frame orientation and expression were also targeted for conversion in order to disrupt splicing. […]

xeno-GVHD model = experiment: Xenogeneic GVHD model (NSG mice given human PBMC); format: in vivo; settings: 30 mg/kg, day 0-28
Method: FIGS. 11A-11D depicts the monitoring of GVHD in mice. Human PBMC (15×10^6) were injected into irradiated (50 rad) NSG mice±methylprednisolone (15 mg/kg), and signs of GVHD were monitored. FIG. 11A depicts a schematic illustration of the experiments indicating cohorts (n=7 mice each), dosing schedule, and analysis points. FIG. 11B depicts Kaplan-Meier survival curves for mice receiving PBMC only, or PBMC+prednisolone (p=0.104). FIG. 11C depicts disease progression monitored by weight loss (p=not significant). FIG. 11D depicts disease progression monitored by quantitating the number of PBMC-derived CD45+, CD4+, CD8+, and CD4+Foxp3+ T cells (p<0.03, <0.05, <0.03, and not significant, respectively). Animals were bled on day 19 for assessment.
FIGS. 12A-12D depicts the monitoring of GVHD in mice. […] FIG. 12B depicts Kaplan-Meier survival curves for mice receiving PBMC only, or PBMC+CNI (PBMC only vs. FK506 (36 mg/kg), p≤0.04). FIG. 12C depicts disease progression monitored by weight loss (p=not significant). FIG. 12D depicts disease progression monitored by quantitating the number of PBMC-derived CD45+, CD4+, CD8+, and CD4+Foxp3+ T cells (p<0.03, <0.05, <0.02, and not significant, respectively). Animals were bled on day 18 for assessment.
A follow up study has shown that xeno-GVHD pathology induced with 200 rad+1×10^7 human PBMC is more reproducible, and median survival is reduced from ˜25 days to ˜20 days.

[1] = test system: lethally irradiated BALB/c recipients of C57BL/6 (B6) donor bone marrow + T cells; experiment: Steroid GVHD prophylaxis and therapy in allogeneic BMT recipients; format: in vivo, mouse; settings: for GVHD therapy outcome / survival vs vehicle: 10 mg/kg/day day 3-28, 1.5×10^6 T cells
Method: FIG. 8 depicts steroid dose responses for GVHD prophylaxis in allogeneic BMT recipients. n=8 per group. BALB/c mice were lethally irradiated, given B6 BM+2 M T cells and steroids at the indicated doses from day 1-28. A low rapamycin dose (day 0-14, 3 times a week through day 27) was used as a comparator.
FIG. 9 depicts steroid based GVHD therapy in allogeneic BMT recipients. n=8 per group. BALB/c mice were lethally irradiated, given B6 BM+1.5 M T cells and steroids at 10 mg/kg/day day 3-28 or 4-28 as indicated.
FIG. 10 depicts steroid based GVHD therapy in allogeneic BMT recipients. n=15 (BM-Circles), 16 (Vehicle-Squares) and 25 (Prednisolone-Triangles). BALB/c mice were lethally irradiated, given B6 BM+1.5 M T cells and steroids at 10 mg/kg/day day 3-28.
To test whether gene modified (GR2-CRISPR/Cas9) or gene edited (GR2-CRISPR/Cas9/AAV-CaN mut.) Tregs have increased efficacy in vivo in the presence of glucocorticoid, how glucocorticoid (methyl-prednisolone) effects GVHD in preclinical mouse models was first determined. […] For these reasons, as well as the more logistically feasible and cost effective benefits of an allogeneic GVHD model, optimized steroid use in allogeneic recipients for GVHD prevention and therapy were first tested, and then applied to a xenogeneic model to enable testing of the human Treg product. Using lethally irradiated BALB/c recipients of C57BL/6 (B6) donor bone marrow+2×10^6 T cells, methyl-prednisolone at doses of 1, 3, and 6 mg/kg/dose were tested days 1-28 vs. rapamycin at 0.5 mg/kg/day, days 0-14 then 3×/week through day 27. The T cell dose was reduced to 1.5×10^6 and moved to GVHD therapy beginning on day 3 or day 4 (rather than day 1 prophylaxis) and compared no treatment to vehicle to prednisolone (n=8/group).
Delaying prednisolone treatment until day 4 was ineffective. Next, an experiment was performed to determine whether prednisolone at 10 mg/kg d3-28 was reproducible, and it was observed that this was the case (FIG. 10).

exon 2 of the NR3C1 gene = experiment: HDR in Tregs, inside-out PCR and Sanger sequencing; format: cell-based, human; settings: AAV-6 donor at various MOI
Method: FIGS. 5A-5C depicts homology directed repair (HDR) in Tregs. FIG. 5A depicts the gene targeting strategy. A calcineurin resistant gene co-expressed with GFP was designed such that it could be targeted to exon 2 of the NR3C1 gene resulting in a loss of 21 amino acids. The donor was encapsulated in AAV-6 particles and screening was performed using an inside/out PCR with primers (indicated by horizontal arrows) within the donor and outside of the donor at the target locus. FIG. 5B depicts gene targeting optimization. Activated Tregs were electroporated with NR3C1 Cas9 RNPs and the different indicated amounts of AAV-6 donor were added. Inside/out PCR results are shown with Sanger sequencing confirmation of the junction between the donor and the adjacent locus sequence shown in FIG. 5C.
To achieve dual drug (steroid and calcineurin inhibitor) resistance, Jurkat and primary T-cells were used to define the conditions for optimal homology directed repair (HDR). Cas9 mRNA and Cas9 RNP approaches were compared and assessed for their ability to facilitate HDR using a reporter HDR construct at the human AAVS1 locus. […] Flanking the calcineurin resistance gene were donor targeting arms homologous to the NR3C1 gene such that insertion disrupted exon 2 with concomitant deletion of 21 amino acids (FIG. 5A). […]

NR3C1 locus = experiment: Indel analysis of the NR3C1 locus by TIDE; format: cell-based, human
Method: FIGS. 4A-4D depicts CRISPR/Cas9-mediated NR3C1 knockout in Tregs. Guide RNA candidates GR1 and GR2 were electroporated into activated Tregs as a ribonucleoprotein particle (RNP) with the Cas9 peptide. FIG. 4A depicts a schematic illustrating the culture process. FIG. 4B depicts a plot assessing the survival of Tregs after 72 h 30 μg/mL of Dexamethasone was added in the conditions as indicated. […] The NR3C1 locus was amplified from the pool of cells and indel analysis was performed by TIDE. The total gene modification rates were 35% and 44% for the pre- and post-Dexamethasone cells, respectively. The graph corresponds to the indel pattern observed in each population. Without being bound by any theory, it is predicted that out of frame indels (e.g., those non-divisible by three) will result in gene inactivation. Y-axis indicates the number of indels as a total percentage. X-axis indicates indels relative to unmodified (shown as bar in position 0). Deletions are shown to the left of the 0 position and each bar is between 1-10 bp away from the target site. Insertions of +1 bp are shown to the right of the 0 position. Asterisks show +1, −1, and −7 bp insertions/deletions and the frequency of these events increased with Dexamethasone exposure (comparing FIG. 4C with FIG. 4D), Dark black bars in FIGS. 4C-4D indicate editing events <0.5%.
To determine whether the GR1 and GR2 guides were also capable of knocking out the NR3C1 locus in cultures of clinically-relevant Tregs, banked Tregs were thawed and re-stimulated with anti-CD3/28 beads in high dose IL-2 (300 U/ml). On day 3, the Tregs were electroporated as above in the absence or presence of GR1 or GR2 GRISPR/Cas9 RNP and returned to culture in optimal expansion conditions. After 2 days, Treg cultures were harvested and were re-cultured±Dexamethasone (30 μg/ml) for an additional 48 hours (7 days total), at which time cultures were harvested, and relative survival was assessed by flow cytometry using a viability dye and counting beads. The dose of 30 μg/mL was identified by performing beta testing in Jurkat and primary T-cells that had undergone CRISPR/Cas9 gene modification and Dexamethasone dosing from 0-100 μg/mL. […] CRISPR/Cas9 gene repair by non-homologous endjoining results in insertions and deletions (indel) proximal to the gRNA binding site. As such, the indel pattern using a sequence trace decomposition algorithm called TIDE (tracking of indels by decomposition) was assessed. Pre- and post-Dexamethasone exposure samples were analyzed (FIGS. 4C and 4D, respectively). The frequency of out of frame indels that are predicted to result in gene inactivation in Tregs prior to Dexamethasone addition was ˜35%, which is similar to what was experimentally observed for peripheral blood T cells treated with GR2 GRISPR/Cas9 reagents (˜40%). Following culture in Dexamethasone, the frequency of indels increased to 44%. Without being bound by any theory, this indicates preferential survival of gene modified Tregs.

Tregs = experiment: Survival of CRISPR/Cas9 NR3C1 knockout Tregs ± Dexamethasone; format: cell-based, human; settings: Tregs electroporated with CRISPR/Cas9 RNP; Dexamethasone 30 μg/ml, 48 hours
Method: FIGS. 4A-4D depicts CRISPR/Cas9-mediated NR3C1 knockout in Tregs. Guide RNA candidates GR1 and GR2 were electroporated into activated Tregs as a ribonucleoprotein particle (RNP) with the Cas9 peptide. FIG. 4A depicts a schematic illustrating the culture process. FIG. 4B depicts a plot assessing the survival of Tregs after 72 h 30 μg/mL of Dexamethasone was added in the conditions as indicated. […] The NR3C1 locus was amplified from the pool of cells and indel analysis was performed by TIDE. The total gene modification rates were 35% and 44% for the pre- and post-Dexamethasone cells, respectively. The graph corresponds to the indel pattern observed in each population. […]
To determine whether the GR1 and GR2 guides were also capable of knocking out the NR3C1 locus in cultures of clinically-relevant Tregs, banked Tregs were thawed and re-stimulated with anti-CD3/28 beads in high dose IL-2 (300 U/ml). […] After 2 days, Treg cultures were harvested and were re-cultured±Dexamethasone (30 μg/ml) for an additional 48 hours (7 days total), at which time cultures were harvested, and relative survival was assessed by flow cytometry using a viability dye and counting beads. […] As such, the indel pattern using a sequence trace decomposition algorithm called TIDE (tracking of indels by decomposition) was assessed. Pre- and post-Dexamethasone exposure samples were analyzed (FIGS. 4C and 4D, respectively). […]

Compound | nuclease activity (Surveyor DNA fragmentation products) (exon 2 of NR3C1) | base editing outcome at the genetic locus (NR3C1) | average weight (xeno-GVHD model) | survival advantage (xeno-GVHD model) | median survival (xeno-GVHD model; controls 29 days) [days] | human CD4+ and CD8+ T cells in the blood (xeno-GVHD model; day 19) | GVHD therapy outcome / survival vs vehicle [1] | GVHD therapy outcome / survival vs vehicle ([1]; listed as Prednisolone) | GVHD therapy outcome ([1]; treatment delayed until day 4) | HDR by inside-out PCR (exon 2 of the NR3C1 gene) | frequency of indels (NR3C1 locus; Tregs following culture in Dexamethasone) [%] | frequency of out of frame indels (NR3C1 locus; Tregs prior to Dexamethasone addition) [%] | frequency of out of frame indels (NR3C1 locus; peripheral blood T cells) [%] | total gene modification rate (NR3C1 locus; post-Dexamethasone cells, FIG. 4D) [%] | total gene modification rate (NR3C1 locus; pre-Dexamethasone cells, FIG. 4C) [%] | survival in the presence of Dexamethasone (Tregs)
GR1: gRNA AACCAAAAGTCTTCGCTGCT (anti-sense), exon 2 of NR3C1 (guide AACCAAAAGUCUUCGCUGCU; RNA, backbone not given here; 5' and 3' phosphorothioate bonds) | exhibited the highest activity levels | premature TAA stop codon |  |  |  |  |  |  |  |  |  |  |  |  |  | 
C[C@]12C=CC(=O)C=C1CC[C@@H]1[C@@H]2[C@@H](O)C[C@@]2(C)[C@H]1CC[C@]2(O)C(=O)CO [prednisolone] |  |  | not significantly different than controls | did not offer a survival advantage | 25 | significantly more human CD4+ and CD8+ T cells | improved outcome | significantly better than vehicle control | ineffective |  |  |  |  |  |  | 
GR2: gRNA TTGAGAAGCGACAGCCAGTG (anti-sense), exon 2 of NR3C1 (guide UUGAGAAGCGACAGCCAGUG; RNA, backbone not given here; 5' and 3' phosphorothioate bonds) | exhibited the highest activity levels | premature TAG stop codon |  |  |  |  |  |  |  | HDR was observed in Tregs at each MOI | 44 | ~35 | ~40 | 44 | 35 | significantly increased survival
